Assay results from publication PMC11157767 (Molecular Cancer, 2024).

System: TRIM24-MET-i cells
Conditions: GSEA v. DMSO
Experimental: The number of unique and shared differentially expressed genes between each comparison are shown in parentheses. A linear regression line is depicted along with Pearson’s correlation coefficient (r) and its associated p-value. […] Common negatively enriched genesets between all three comparisons are in bold. c, Heatmaps showing expression of Hallmark_Myc_Target_v1/2 genes for indicated cells and treatment comparisons (TRIM-MET cells were treated in vitro, TFG-MET cells in vivo). Select leading edge genes from GSEA are labeled.

## CNC(=O)c1ccc(-c2cnc3ncc(Cc4ccc5ncccc5c4)n3n2)cc1F [Capmatinib]
  ES GOBP_NCRNA_METABOLIC_PROCESS: -0.6039
  ES GOBP_RIBONUCLEOPROTEIN_COMPLEX_BIOGENESIS: -0.6363
  ES GOBP_RIBOSOME_BIOGENESIS: -0.7035
  ES GOBP_RRNA_METABOLIC_PROCESS: -0.6814
  ES GOCC_90S_PRERIBOSOME: -0.8257
  ES GOCC_NUCLEOLUS: -0.4698
  ES GOCC_PRERIBOSOME: -0.8127
  ES GOCC_RIBONUCLEOPROTEIN_COMPLEX: -0.4981
  ES GOCC_SMALL_SUBUNIT_PROCESSOME: -0.8233
  ES GOMF_CATALYTIC_ACTIVITY_ACTING_ON_RNA: -0.4916
  ES GOMF_HYDROLASE_ACTIVITY_ACTING_ON_ACID_ANHYDRIDES: -0.3694
  ES GOMF_MRNA_BINDING: -0.4686
  ES GOMF_RIBONUCLEOPROTEIN_COMPLEX_BINDING: -0.568
  ES GOMF_SNORNA_BINDING: -0.8035
  ES HALLMARK_ADIPOGENESIS: -0.2484
  ES HALLMARK_ALLOGRAFT_REJECTION: -0.3747
  ES HALLMARK_ANDROGEN_RESPONSE: -0.535
  ES HALLMARK_ANGIOGENESIS: -0.5762
  ES HALLMARK_APICAL_JUNCTION: -0.2832
  ES HALLMARK_APICAL_SURFACE: 0.5506
  ES HALLMARK_APOPTOSIS: -0.4219
  ES HALLMARK_BILE_ACID_METABOLISM: 0.4031
  ES HALLMARK_CHOLESTEROL_HOMEOSTASIS: -0.4011
  ES HALLMARK_COAGULATION: -0.4551
  ES HALLMARK_COMPLEMENT: -0.4981
  ES HALLMARK_DNA_REPAIR: -0.2565
  ES HALLMARK_E2F_TARGETS: -0.3059
  ES HALLMARK_EPITHELIAL_MESENCHYMAL_TRANSITION: -0.2783
  ES HALLMARK_ESTROGEN_RESPONSE_EARLY: -0.385
  ES HALLMARK_ESTROGEN_RESPONSE_LATE: -0.2661
  ES HALLMARK_FATTY_ACID_METABOLISM: 0.234
  ES HALLMARK_G2M_CHECKPOINT: -0.3396
  ES HALLMARK_GLYCOLYSIS: -0.3498
  ES HALLMARK_HEDGEHOG_SIGNALING: -0.4541
  ES HALLMARK_HEME_METABOLISM: 0.2869
  ES HALLMARK_HYPOXIA: -0.3596
  ES HALLMARK_IL2_STAT5_SIGNALING: -0.5259
  ES HALLMARK_IL6_JAK_STAT3_SIGNALING: -0.2773
  ES HALLMARK_INFLAMMATORY_RESPONSE: -0.4368
  ES HALLMARK_INTERFERON_ALPHA_RESPONSE: 0.32
  ES HALLMARK_INTERFERON_GAMMA_RESPONSE: -0.2553
  ES HALLMARK_KRAS_SIGNALING_DN: 0.2731
  ES HALLMARK_KRAS_SIGNALING_UP: -0.491
  ES HALLMARK_MITOTIC_SPINDLE: -0.3333
  ES HALLMARK_MTORC1_SIGNALING: -0.5528
  ES HALLMARK_MYC_TARGETS_V1: -0.6393
  ES HALLMARK_MYC_TARGETS_V2: -0.8185
  ES HALLMARK_MYOGENESIS: -0.217
  ES HALLMARK_NOTCH_SIGNALING: -0.4058
  ES HALLMARK_OXIDATIVE_PHOSPHORYLATION: -0.3105
  ES HALLMARK_P53_PATHWAY: -0.2547
  ES HALLMARK_PANCREAS_BETA_CELLS: 0.3447
  ES HALLMARK_PEROXISOME: 0.2566
  ES HALLMARK_PI3K_AKT_MTOR_SIGNALING: -0.3267
  ES HALLMARK_PROTEIN_SECRETION: -0.3279
  ES HALLMARK_REACTIVE_OXYGEN_SPECIES_PATHWAY: -0.337
  ES HALLMARK_SPERMATOGENESIS: 0.1852
  ES HALLMARK_TGF_BETA_SIGNALING: -0.5788
  ES HALLMARK_TNFA_SIGNALING_VIA_NFKB: -0.6019
  ES HALLMARK_UV_RESPONSE_DN: -0.3389
  ES HALLMARK_UV_RESPONSE_UP: -0.4065
  ES HALLMARK_WNT_BETA_CATENIN_SIGNALING: -0.3938
  ES HALLMARK_XENOBIOTIC_METABOLISM: 0.19
  ES KRIGE_RESPONSE_TO_TOSEDOSTAT_6HR_DN: -0.5928
  ES KRIGE_RESPONSE_TO_TOSEDOSTAT_24HR_DN: -0.6267
  ES LEE_BMP2_TARGETS_DN: -0.6601
  ES PUJANA_CHEK2_PCC_NETWORK: -0.5659
  ES WEI_MYCN_TARGETS_WITH_E_BOX: -0.6789
  NES GOBP_NCRNA_METABOLIC_PROCESS: -2.536
  NES GOBP_NCRNA_PROCESSING: -2.602
  NES GOBP_RIBONUCLEOPROTEIN_COMPLEX_BIOGENESIS: -2.684
  NES GOBP_RIBOSOME_BIOGENESIS: -2.8623
  NES GOBP_RRNA_METABOLIC_PROCESS: -2.7
  NES GOCC_90S_PRERIBOSOME: -2.336
  NES GOCC_NUCLEOLUS: -2.057
  NES GOCC_PRERIBOSOME: -2.789
  NES GOCC_RIBONUCLEOPROTEIN_COMPLEX: -2.151
  NES GOCC_SMALL_SUBUNIT_PROCESSOME: -2.456
  NES GOMF_CATALYTIC_ACTIVITY_ACTING_ON_RNA: -2.047
  NES GOMF_HYDROLASE_ACTIVITY_ACTING_ON_ACID_ANHYDRIDES: -1.614
  NES GOMF_MRNA_BINDING: -1.915
  NES GOMF_RIBONUCLEOPROTEIN_COMPLEX_BINDING: -2.117
  NES GOMF_SNORNA_BINDING: -2.308
